Test system: Staphylococcus aureus (ATCC #6538)
Assay: S. aureus growth on pH adjusted TSA plates
Assay type: cell-based
Conditions: TSA plate pH 4.51 supplemented with 0.03% PCA, ~48 hrs at 33° C.; pH 5.99 plate without PCA shows colonies
Experimental: The Staphylococcus aureus (ATCC #6538) bacteria cultures used herein can be created from commercially available Trypticase Soy Agar (TSA) plates that are streaked and incubated 17-20 hours at 35° C.±2° C. The resulting bacteria are grown in a conventional saline buffer solution with the optical density adjusted to deliver 10^9 to 10^10 cfu/mL. A sample of the bulk culture can be diluted 1:1,000,000 in saline buffer. 100 ul of the dilute bacteria culture is streak plated onto a TSA plate that is pH adjusted to pH 5.99 or onto a TSA plate that is pH adjusted to pH 4.51 and supplemented with 0.03% PCA. Plates are incubated ˜48 hrs at 33° C.±2° C. and photographed for growth as shown in FIGS. 2A (with pH 5.99) and 2B (with pH 4.5 and 0.03% PCA).

In the case of `O=C1CC[C@@H](C(=O)O)N1` [PCA, pyrrolidone carboxylic acid], the “S. aureus colonies after incubation” value is reported as “no colonies are observed”.

— patent publication US12023399B2, “Cleansing composition with pyrrolidone carboxylic acid” (The Procter & Gamble Company, priority 2021, dated 2024)
